Source: publication PMC10023972, “Saturated fatty acid– and/or monounsaturated fatty acid–containing phosphatidic acids selectively interact with heat shock protein 27” (The Journal of Biological Chemistry, 2023)

Biological target: T1, HSP27 (heat shock protein 27, HSPβ1; 6×His-HSP27) (Homo sapiens, UniProt P04792)
T1 construct: gene HSPB1; full length (205 aa), N-terminal 6×His tag (pET-28a), E. coli Rosetta 2 (DE3), Ni-NTA, ~30 kDa band; large oligomer (more than octamer)
Test: liposome co-sedimentation (ultracentrifugation), Western blot densitometry
Format: binding
Conditions: unreliable; extrapolated beyond the 0-25 μM range; PS in liposomes (PS/egg PC/cholesterol 20/50/30 mol%), 0.1 μM protein, pH 7.4, 4 °C

T1 sequence (P04792 whole entry): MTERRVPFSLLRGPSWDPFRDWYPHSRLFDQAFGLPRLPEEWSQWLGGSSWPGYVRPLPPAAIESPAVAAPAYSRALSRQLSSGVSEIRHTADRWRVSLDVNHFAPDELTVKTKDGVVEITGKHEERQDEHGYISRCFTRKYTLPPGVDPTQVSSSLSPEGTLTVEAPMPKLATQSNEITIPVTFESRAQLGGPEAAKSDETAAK

CCCCCCCCCCCCCCCC(=O)OC[C@H](COP(=O)(O)OC[C@H](N)C(=O)O)OC(=O)CCCCCCCCCCCCCCC [16:0/16:0-PS, 1,2-dipalmitoyl-sn-glycero-3-phosphoserine]
extrapolated Kd: ~ 100 μM
